Six molecules from patent US4629736A, “Fatty acid derivatives and process of producing them” (Yamanouchi Pharmaceutical Co., Ltd., priority 1983, dated 1986) can be followed below.

Data set [1] relates to Fibrin-clot (lysis by Urokinase). Briefly: Fibrinolytic action (fibrin-clot lysis assay), clot lysis time relative to Urokinase alone. The data set is classed as biochemical. The method, then: FIBRINOLYTIC ACTION (Fibrin-clot lysis assay)
Fibrinogen (1 mg/50 μl, made by Green Cross Corporation) and various amounts of the test compounds, were added to test tubes, followed to make a total volume of 850 μl with cold Tris-buffered saline (20 mM Tris-buffer, pH 7.4, containing 140 mM NaCl). To the solutions were added 100 μl of Urokinase solution (30 CTA unit/0.1 ml) and 50 μl of thrombin solution (2 NIH units/50 μl) to make final clot volume of 1 ml each in test tubes in an ice bath. The tubes were quickly shaken to mix the reagents well and immediately placed in a 37° C. water bath, and the clot lysis time was recorded. Test compounds were dissolved in physiological saline, except contrast one dissolved in physiological saline containing 10% cremophore and 0.15% ethanol. Thus, by measuring the time of clot lysis, the relative activity of the fibrinolytic action of the test compound to that of Urokinase using the system of Urokinase alone as the control was determined. The results of the pharmacological effect of the compounds of this invention are shown in Table 1 below together with that of 3-hexadecanoyloctadecanoyl-β-alanyl-L-phenylalanine having the formula [drawing 15] which is one of the compounds having the most excellent fibrinolytic action in known compounds.

Another data set in a line: Solubility in saline. The data set is classed as physicochemical. The text has this:
In particular, the compounds of this invention have been discovered after investigating the point of water solubility, which has never been attained in known acylpeptides. That is, the compounds of this invention have very improved water solubility, whereby sufficient pharmacological effect of the compounds can be expected and also the preparations of the compounds, such as the application to injections, and the like, can be easily performed. For example, the solubility of compound of Example 21 is more than 5 mg/ml saline.

In a further data set the test system is mice. Description: Acute toxicity, intravenous injection to mice. Format: in vivo. To be noted: mouse. As for the experimental part:
In addition, the acute toxicity of the compound in Example 21 was measured as follows.

Setting [2] is: at 1 × 10^-5 M, solvent physiological saline solution.

For `CCCCCCCCCCOCCNC(=O)[C@H](CC(=O)O)NC(=O)COCCOCCCCCCCCCC` [Example 14, (S)-3-(3,6-dioxahexadecanamido)-3-(3-oxatridecylcarbamoyl)propionic acid], in data set [1] (setting [2]), the “Fibrinolytic Action, maximum relative activity (%) with the activity of Urokinase alone being defined to 100%” value came to 150%.
As for `CCCCCCCCCCCCCCCC(CC(=O)N[C@@H](Cc1ccccc1)C(=O)O)OC(=O)COCCOCCOCCOCCCC` (stereo partly drawn) [Example 19, N-[3-(3,6,9,12-tetraoxahexadecanoyloxy)octadecanoyl]-L-phenylalnine], in data set [1] (setting [2]), the “Fibrinolytic Action, maximum relative activity (%) with the activity of Urokinase alone being defined to 100%” value is on record as 130-140%.
`CCCCCCCCCCCCCCCC(CC(=O)N[C@@H](Cc1ccccc1)C(=O)O)OC(=O)COCCOCCOCCCCCC` (stereo partly drawn) [Example 20, N-[3-(3,6,9-trioxapentadecanoyloxy)octadecanoyl]-L-phenylalanine]: in data set [1] (setting [2]), the “Fibrinolytic Action, maximum relative activity (%) with the activity of Urokinase alone being defined to 100%” value is 130-150%.
As for `CCCCCCCCCCCCCC(CC(=O)N[C@@H](Cc1ccccc1)C(=O)O)OC(=O)COCCOCCCCCCCCCC` (stereo partly drawn) [Example 21, N-[3-(3,6-dioxahexadecanoyloxy)hexadecanoyl]-L-phenylalanine], the “Fibrinolytic Action, maximum relative activity (%) with the activity of Urokinase alone being defined to 100%” value in data set [1] (at 3 × 10^-6 M, solvent physiological saline solution) is 150-160%. Also, the solubility entry in “Solubility in saline” is listed as “more than 5 mg/ml saline”. The “acute toxicity (dose without death)” value in the data set with mice is reported as “higher than 200 mg/40 ml saline/kg”.
For `CCCCCCCCCCCCCCCC(CC(=O)N[C@@H](CO)C(=O)O)OC(=O)COCCOCCCCCCCCCC` (stereo partly drawn) [Example 22, N-[3-(3,6-dioxahexadecanoyloxy)octadecanoyl]-L-serine], in data set [1] (at 3 × 10^-5 M, solvent physiological saline solution), the “Fibrinolytic Action, maximum relative activity (%) with the activity of Urokinase alone being defined to 100%” value stood at 160%.
With `CCCCCCCCCCCCCCCC(=O)C(CCCCCCCCCCCCCCC)CC(=O)NCCC(=O)N[C@@H](Cc1ccccc1)C(=O)O` (stereo partly drawn) [Known compound, 3-hexadecanoyloctadecanoyl-β-alanyl-L-phenylalanine, reference compound], the “Fibrinolytic Action, maximum relative activity (%) with the activity of Urokinase alone being defined to 100%” value in data set [1] (at 1 × 10^-4 M, solvent Cremophore solution) is listed as 140-150%.
